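Tested at 5 concentrations; 48 h exposure; 96-well plates; endpoints linearly interpolated, else capped at highest concentration. GI50 marks 50% less growth. TGI: total growth inhibition.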
Experiments:
Test in all cases: NCI tumour cell line growth inhibition, 48 h
CAKI-1 renal = tested on: CAKI-1 renal
A549 NSCLC = tested on: A549 NSCLC
OVCAR-5 ovarian = tested on: OVCAR-5 ovarian
K-562 leukemia = tested on: K-562 leukemia
SF-268 CNS = tested on: SF-268 CNS
SK-MEL-2 melanoma = tested on: SK-MEL-2 melanoma
HOP-92 NSCLC = tested on: HOP-92 NSCLC
UO-31 renal = tested on: UO-31 renal
EKVX NSCLC = tested on: EKVX NSCLC
A498 renal = tested on: A498 renal

**Q.** What does the source list for `CC(=O)[CH-]C(C)=O.CC(=O)[CH-]C(C)=O.CC[O-].CC[O-].[Ti+4]`?
**A.** GI50 (CAKI-1 renal): > 100 µM; TGI (CAKI-1 renal): > 100 µM; GI50 (A549 NSCLC): > 100 µM; TGI (A549 NSCLC): > 100 µM; GI50 (OVCAR-5 ovarian): > 100 µM; TGI (OVCAR-5 ovarian): > 100 µM; GI50 (K-562 leukemia): > 100 µM; TGI (K-562 leukemia): > 100 µM; GI50 (SF-268 CNS): > 100 µM; TGI (SF-268 CNS): > 100 µM; GI50 (SK-MEL-2 melanoma): > 100 µM; TGI (SK-MEL-2 melanoma): > 100 µM; GI50 (HOP-92 NSCLC): > 100 µM; TGI (HOP-92 NSCLC): > 100 µM; GI50 (UO-31 renal): > 100 µM; TGI (UO-31 renal): > 100 µM

**Q.** For `O=C(O)/C(=C\c1ccncc1)c1cccc2ccccc12`, which TGI (EKVX NSCLC) is on record?
**A.** > 100 µM

**Q.** And the TGI (A549 NSCLC)?
**A.** > 100 µM

**Q.** And the TGI (OVCAR-5 ovarian)?
**A.** > 100 µM

**Q.** And the TGI (K-562 leukemia)?
**A.** > 100 µM

**Q.** What about the TGI (SF-268 CNS) of the same compound?
**A.** > 100 µM

**Q.** What about the TGI (SK-MEL-2 melanoma) of the same compound?
**A.** > 100 µM

**Q.** And the TGI (HOP-92 NSCLC)?
**A.** > 100 µM

**Q.** Which GI50 (CAKI-1 renal) does the source give for `O=C(CCc1ccc(O)cc1)N/N=C/c1cc(Br)ccc1O` here?
**A.** 1.95 µM

**Q.** What about the TGI (CAKI-1 renal) of the same compound?
**A.** 8.99 µM

**Q.** What about the GI50 (A549 NSCLC) of the same compound?
**A.** 4.03 µM

**Q.** What about the TGI (A549 NSCLC) of the same compound?
**A.** > 100 µM

**Q.** What about the GI50 (OVCAR-5 ovarian) of the same compound?
**A.** 6.77 µM

**Q.** What about the TGI (OVCAR-5 ovarian) of the same compound?
**A.** > 100 µM

**Q.** And the GI50 (K-562 leukemia)?
**A.** 3.12 µM

**Q.** What about the TGI (K-562 leukemia) of the same compound?
**A.** 28.6 µM

**Q.** What about the GI50 (SF-268 CNS) of the same compound?
**A.** 2.23 µM

**Q.** What about the TGI (SF-268 CNS) of the same compound?
**A.** 24.4 µM

**Q.** What about the GI50 (SK-MEL-2 melanoma) of the same compound?
**A.** 5.28 µM

**Q.** And the TGI (SK-MEL-2 melanoma)?
**A.** 38.3 µM

**Q.** And the GI50 (A498 renal)?
**A.** 9.81 µM

**Q.** And the TGI (A498 renal)?
**A.** 49.6 µM

**Q.** What about the GI50 (HOP-92 NSCLC) of the same compound?
**A.** 4.9 µM

**Q.** What about the TGI (HOP-92 NSCLC) of the same compound?
**A.** 49.3 µM

**Q.** What about the GI50 (UO-31 renal) of the same compound?
**A.** 1.34 µM

**Q.** And the TGI (UO-31 renal)?
**A.** 7.19 µM

**Q.** Which TGI (CAKI-1 renal) does the source give for `Cc1ccc(C(=O)CC2=Nc3nnc(CCCCCCCc4nnc5n4C(=O)C(CC(=O)c4ccc(C)cc4)=N5)n3C2=O)cc1` here?
**A.** > 100 µM

**Q.** And the TGI (EKVX NSCLC)?
**A.** > 100 µM

**Q.** And the TGI (A549 NSCLC)?
**A.** > 100 µM

**Q.** What about the TGI (OVCAR-5 ovarian) of the same compound?
**A.** > 100 µM

**Q.** What about the TGI (K-562 leukemia) of the same compound?
**A.** > 100 µM

**Q.** What about the TGI (SF-268 CNS) of the same compound?
**A.** > 100 µM

**Q.** What about the TGI (UO-31 renal) of the same compound?
**A.** > 100 µM

**Q.** What does the source list for `CCCCCn1c(C)cc(/C=C\c2ccc3cc(C)ccc3[n+]2C)c1C`?
**A.** GI50 (CAKI-1 renal): 0.164 µM; TGI (CAKI-1 renal): 0.675 µM; GI50 (EKVX NSCLC): 0.275 µM; TGI (EKVX NSCLC): 2.43 µM; GI50 (A549 NSCLC): 0.0557 µM; TGI (A549 NSCLC): 0.97 µM; GI50 (OVCAR-5 ovarian): 0.313 µM; TGI (OVCAR-5 ovarian): 1.41 µM; GI50 (K-562 leukemia): 0.0341 µM; TGI (K-562 leukemia): 1.11 µM; GI50 (SF-268 CNS): 0.252 µM; TGI (SF-268 CNS): 1.41 µM; GI50 (HOP-92 NSCLC): 0.109 µM; TGI (HOP-92 NSCLC): 0.487 µM; GI50 (UO-31 renal): 0.212 µM; TGI (UO-31 renal): 0.502 µM

**Q.** For `Cc1cc(Nc2cc(N)ncn2)c(=O)n2c1C(=O)NC21CCCCC1`, which GI50 (EKVX NSCLC) is on record?
**A.** > 100 µM

**Q.** What about the TGI (EKVX NSCLC) of the same compound?
**A.** > 100 µM

**Q.** And the GI50 (A549 NSCLC)?
**A.** > 100 µM

**Q.** And the TGI (A549 NSCLC)?
**A.** > 100 µM

**Q.** What about the GI50 (OVCAR-5 ovarian) of the same compound?
**A.** > 100 µM

**Q.** And the TGI (OVCAR-5 ovarian)?
**A.** > 100 µM

**Q.** What about the GI50 (K-562 leukemia) of the same compound?
**A.** > 100 µM

**Q.** What about the TGI (K-562 leukemia) of the same compound?
**A.** > 100 µM

**Q.** And the GI50 (SF-268 CNS)?
**A.** 76.9 µM

**Q.** What about the TGI (SF-268 CNS) of the same compound?
**A.** > 100 µM

**Q.** What about the GI50 (SK-MEL-2 melanoma) of the same compound?
**A.** 58.2 µM

**Q.** What about the TGI (SK-MEL-2 melanoma) of the same compound?
**A.** > 100 µM

**Q.** What about the GI50 (A498 renal) of the same compound?
**A.** 50.7 µM

**Q.** And the TGI (A498 renal)?
**A.** > 100 µM

**Q.** What about the GI50 (HOP-92 NSCLC) of the same compound?
**A.** 13.3 µM

**Q.** And the TGI (HOP-92 NSCLC)?
**A.** > 100 µM

**Q.** What about the GI50 (UO-31 renal) of the same compound?
**A.** 51.8 µM

**Q.** What about the TGI (UO-31 renal) of the same compound?
**A.** > 100 µM

**Q.** What does the source list for `NC(=S)NN=C1CSSC1`?
**A.** GI50 (CAKI-1 renal): 3.61 µM; TGI (CAKI-1 renal): 40.3 µM; GI50 (A549 NSCLC): 2.26 µM; TGI (A549 NSCLC): 12.1 µM; GI50 (OVCAR-5 ovarian): 5.26 µM; TGI (OVCAR-5 ovarian): 40.9 µM; GI50 (K-562 leukemia): 27 µM; TGI (K-562 leukemia): > 100 µM; GI50 (SF-268 CNS): 3.61 µM; TGI (SF-268 CNS): 13.8 µM; GI50 (SK-MEL-2 melanoma): 3.23 µM; TGI (SK-MEL-2 melanoma): 18.9 µM; GI50 (A498 renal): 1.95 µM; TGI (A498 renal): 6.03 µM; GI50 (HOP-92 NSCLC): 2.35 µM; TGI (HOP-92 NSCLC): 5.89 µM; GI50 (UO-31 renal): 1.83 µM; TGI (UO-31 renal): 20.1 µM

**Q.** Which TGI (CAKI-1 renal) does the source give for `O=C1/C(=C/c2ccc(Br)cc2)CCC/C1=C\c1ccc(Br)cc1` here?
**A.** > 100 µM

**Q.** And the TGI (EKVX NSCLC)?
**A.** 62.5 µM

**Q.** What about the TGI (A549 NSCLC) of the same compound?
**A.** 35.3 µM

**Q.** And the TGI (K-562 leukemia)?
**A.** 21.2 µM

**Q.** What about the TGI (SF-268 CNS) of the same compound?
**A.** > 100 µM

**Q.** And the TGI (SK-MEL-2 melanoma)?
**A.** 63 µM

**Q.** And the TGI (A498 renal)?
**A.** 16.1 µM

**Q.** What about the TGI (UO-31 renal) of the same compound?
**A.** 24.7 µM

Reference: PubChem BioAssay (NCI)
